Assays:
[1] = test system: rat model of neuropathic pain; assay: Neuropathic pain model (partial ligation of the sciatic nerve): paw withdrawal to mechanical pressure and cold (10° C.), general observations; format: in vivo
Description: (§1) The efficacy of Compounds 1, 2, 3 and 4 was investigated using rat models of neuropathic and/or persistent inflammatory pain.
(§2) Subjects comprised male, Wistar Hanover rats, 6 animals per group (225±2 g for Compound 1 studies and Compound 2 studies; 214±1 g for Compound 3 studies; 236±1 g for Compound 4 studies).
(§3) Vehicle (12% Captisol®; 0.5% w/v HPMC and 0.1% w/v Tween-80; 5 ml/kg via the intraperitoneal route) was prepared using autoclaved deionized water not more than one week prior to use.
(§4) The details of the studies performed are outlined in Table 1.
(§5) The control for the neuropathic pain model was lamotrigine, administered at 30 mg/kg via oral delivery. The control for the inflammatory pain model was diclofenac, administered at 30 mg/kg via oral delivery. Statistical analysis was performed using one-way ANOVA, and comparisons were performed with time-matched vehicle group using Tukey's HSD test wherein * p<0.05, ** p<0.01, *** p<0.001.
(§6) Treatment groups were randomised and blinded. Groups of 6 rats were used.
Neuropathic pain was induced by partial ligation of the sciatic nerve. Briefly, the rats were anaesthetised (isoflurane/O2 inhalation), the left sciatic nerve exposed at mid-thigh level through a small incision and ⅓ to ½ of the nerve thickness tightly ligated within a 7.0 silk suture. The wound was closed with surgical glue. Animals were allowed to recover and tested 12-15 days following surgery.
Withdrawal thresholds or latencies were measured on both the ipsilateral (ligated) and contralateral (non-ligated) paws, prior to (predose) and then up to 24 h following drug or vehicle administration.
Pre-dose behavioural measurements were obtained by measuring paw withdrawals 14 days following nerve ligation; before the initiation of drug treatment. Following treatment, further readings were taken at 1, 3, 6 and 24 hour after administration.
(§7) Mechanical hyperalgesia was examined in a model of neuropathic pain by measuring paw withdrawal thresholds (PWT) to increasing mechanical force applied to the dorsal surface of the rat paw using an Analgesymeter (Ugo-Basile, Milan) equipped with a wedge-shaped probe (area 1.75 mm^2). Cut-off was set at 250 g and the end-point was taken as withdrawal of the hind paw. Both ipsilateral and contralateral paw withdrawal readings were taken.
(§8) Cold sensitivity was assessed using a commercially available cold-plate (Ugo Basile, Milan). The cold plate was allowed to stabilize for 5 minutes at the set temperature prior to testing. Paw withdrawal latencies (PWL) were determined with the cold-plate set at 10° C. The animals were lightly restrained and each hind paw in turn placed onto the surface of the cold-plate. The end point was taken as the withdrawal of the paw and recorded as the withdrawal latency for the ipsilateral and the contralateral paw. A maximum cut-off of 30 seconds was used for each paw.
(§9) In addition to behavioural pain readings, each rat was observed throughout the study for changes in general behaviour.
(§10) Data were expressed as withdrawal threshold (g) or withdrawal latencies (s) and percentage reversals calculated according to the following formula: […]
(§11) Statistical analysis was carried out on withdrawal threshold readings using ANOVA with repeated measures followed by Tukey's HSD test. The level for statistical significance was set as p<0.05.

[2] = test system: rat model of persistent inflammatory pain; assay: Persistent inflammatory pain model (intraplantar FCA): paw withdrawal to mechanical pressure and cold (10° C.), general observations; format: in vivo; details: 30 mg/kg oral
Description: as §1, §2, §3, §4, §5, §6
Mechanical hyperalgesia was examined in a model of persistent inflammatory pain. The hyperalgesia was induced by an intraplantar injection (25 μl) of Freund's Complete Adjuvant (FCA) into the left hind paw.
To assess the effect of the test compound, paw withdrawal thresholds or latencies were measured on both the ipsilateral (FCA-injected) and contralateral (non-injected) paws, prior to (naïve) and 24 hours following FCA injection (predose), and then at 1, 3, 6 and 24 hours after drug or vehicle administration.
as §7, §8, §9, §10, §11

[3] = positive control in Compound 2 Study 1, 30 mg/kg oral, 3 hours post-dose
[4] = positive control in Compound 3 neuropathic study, 30 mg/kg oral, 3 hours post-dose
[5] = positive control in Study 2 (Compounds 1 and 2), 30 mg/kg oral, 3 hours post-dose
[6] = positive control in Compound 2 study, 3 hours post-dose
[7] = positive control in Compound 3 study, 3 hours post-dose
[8] = positive control in Compound 4 study

Structure (SMILES)	peak reversal, cold ([1]; positive control in Compound 1 Study 1, 30 mg/kg oral, 1 hour post-dose)	peak reversal, mechanical ([1]; positive control in Compound 1 Study 1, 30 mg/kg oral, 3 hours post-dose)	peak reversal, cold [1, 3]	peak reversal, mechanical [1, 3]	peak reversal, cold [1, 4]	peak reversal, mechanical [1, 4]	peak reversal, cold [1, 5]	peak reversal, mechanical [1, 5]	peak reversal, mechanical ([2]; positive control in Compound 1 study, 1 hour post-dose)	peak reversal, cold ([2]; positive control in Compound 1 study, 3 hours post-dose)	peak reversal, cold [2, 6]	peak reversal, mechanical [2, 6]	peak reversal, cold [2, 7]	peak reversal, mechanical [2, 7]	reversal, cold [2, 8]	reversal, mechanical [2, 8]
Nc1nnc(-c2cccc(Cl)c2Cl)c(N)n1 [lamotrigine, reference compound]	58%	65%	58%	54%	74%	61%	67%	67%	–	–	–	–	–	–	–	–
O=C(O)Cc1ccccc1Nc1c(Cl)cccc1Cl [diclofenac, reference compound]	–	–	–	–	–	–	–	–	64%	79%	69%	66%	45%	60%	50%	49%

Source: patent publication US11944623B2, “Modulators of Kv3 channels to treat pain” (Autifony Therapeutics Limited, priority 2015, dated 2024)
